# Measured values published in patent US20240409549A1, “NEW CRYSTAL FORM AND USE OF NITROGENOUS TRICYCLIC COMPOUND” (SUNSHINE LAKE PHARMA CO., LTD., priority 2021, published 2024).
# Tests used:
# [1] = Hygroscopicity experiment (dynamic vapor sorption); assay type: physicochemical
# Procedure: The hygroscopicity of the present invention is measured using the DVS INT-Std dynamic moisture and gas adsorption analyzer of the Surface Measurement Systems Company in UK. The humidity test range was 0%-95%, the air flow was 200 mL/min, the temperature was 25° C., test point: take one test point per […] 5% humidity.
# An appropriate amount of the test sample was taken and the hygroscopicity of the test sample was tested by dynamic moisture adsorption device. The description of the hygroscopic characteristics and the definition of the hygroscopic weight gain (Appendix 9103 of Chinese Pharmacopoeia 2020 Edition, Guidelines for Drug Hygroscopicity Tests, experimental conditions: 25° C.±1° C., 80%±2% relative humidity) are described in the table below: […]
# [2] = Stability experiment: high-temperature test; assay type: physicochemical; details: for Purity (%): HPLC
# Procedure: (§1) (1) High-temperature test: A batch of the test sample was taken into a flat weighing bottle, divided into ≤5 mm thick thin layer. The sample was placed at 60° C. for 30 days. The sample was then sampled at day 5, day 13 and day 30, and the change of the sample's color was observed. The purity of the sample was detected by HPLC.
# [3] = Pharmacokinetic experiment, oral capsules in Beagle dogs; assay type: in vivo; details: male Beagle dogs, 5 mg/kg
# Procedure: The crystal form of the compound having Formula (I) was filled into capsules, which were used for oral administration.
# Three male Beagle dogs weighing 8-12 kg were orally administered with capsules containing the test sample at a dose of 5 mg/kg, and blood samples were taken at time points of 0.25 h, 0.5 h, 1.0 h, 2.0 h, 4.0 h, 6.0 h, 8.0 h and 24 h. Standard curve was plotted based on concentrations of the samples in a suitable range, the concentration of the test sample in the plasma sample was measured and quantified by AB SCIEX API4000 LC-MS/MS at MRM mode. Pharmacokinetic parameters were calculated according to drug concentration -time curve using a noncompartmental method by WinNonLin 6.3 software.
# [4] = Stability experiment: photostability (lighting) test; assay type: physicochemical; details: for Purity (%): HPLC; for Purity (%) / Appearance: Lighting, open light box with UV
# Source text: as §1, with “(3) Photostability Test:” for “(1) High-temperature test:”, “placed in an opened light box (with UV)” for “placed”, “the illuminance […], UV light≥0.7 w/m^2” for “60° C.”
# [5] = Stability experiment: high-humidity test; assay type: physicochemical; details: for Purity (%): HPLC; for Purity (%) / Appearance: High-humidity 25° C., RH 90%±5%
# Procedure: (2) High-humidity test: take a batch of the test sample into the flat weighing bottle, divided into ≤5 mm thick thin layer. The samples were sampled at 25° C. and RH for 90%±5% for 30 days. The samples were sampled at day 5, 13 and day 30, and the sample color was observed. The purity of the sample was determined by HPLC.
# [6] = High-temperature 60° C., day 13
# [7] = High-temperature 60° C., day 30
# [8] = day 0 (start, common to all conditions)
smiles,measurement,setting,value
"O=C(O)c1ccc2c(c1)Oc1ccc(OCc3c(-c4c(Cl)cccc4Cl)noc3C3CC3)nc1C1(CC1)C2 [Crystal form I, 2-((5-cyclopropyl-3-(2,6-dichlorophenyl)isoxazol-4-yl)methoxy)-10H-spiro[benzo[6,7]oxepino[3,2-b]pyridine-11,1′-cyclopropane]-7-carboxylic acid]",hygroscopic weight gain,"[1]; after equilibrium at relative humidity of 80%, 25° C.",less than 0.2%
same,hygroscopic characteristics,"[1]; relative humidity of 80%, criterion of Chinese Pharmacopoeia 2020 Appendix 9103",no or almost no hygroscopicity
same,Purity (%),"[2]; High-temperature 60° C., day 5",99.83%
same,Purity (%),[2]; [6],99.91%
same,Purity (%),[2]; [7],99.70%
same,Purity (%),[2]; [8],99.88%
same,Appearance,"[2]; High-temperature 60° C., day 5",White
same,Appearance,[2]; [6],White
same,Appearance,[2]; [7],White
same,Appearance,[2]; [8],White
same,crystal structure stability,[2]; high temperature conditions,remains basically unchanged
same,AUC(0-t),"[3]; dog, plasma",1020 ng·h/mL
same,Cmax,"[3]; dog, plasma",389 ng/mL
same,Tmax,[3],1.67 h
same,Purity (%),[4]; day 5,99.88%
same,Purity (%),[4]; day 13,99.59%
same,Purity (%),[4]; day 30,99.83%
same,Appearance,[4]; day 5,White
same,Appearance,[4]; day 13,White
same,Appearance,[4]; day 30,White
same,crystal structure stability,[4]; lighting conditions,remains basically unchanged
same,Purity (%),[5]; day 5,99.81%
same,Purity (%),[5]; day 13,99.70%
same,Purity (%),[5]; day 30,99.82%
same,Appearance,[5]; day 5,White
same,Appearance,[5]; day 13,White
same,Appearance,[5]; day 30,White
same,crystal structure stability,[5]; high humidity conditions,remains basically unchanged
